Laboratory results reported in patent US11970498B2, “CDK2 inhibitors” (BLUEPRINT MEDICINES CORPORATION, priority 2021, dated 2024).

Experiments:
CDK2/Cyclin E = CDK2/Cyclin E (Homo sapiens, UniProt P24941); test: CDK2/Cyclin E biochemical phosphorylation assay (Caliper mobility shift); details: apparent IC50; 1.0 mM ATP or ATP Km; 1.25 nM enzyme; 25° C.; read-out: CDK2/cyclin E1 IC50
Experimental: (§1) Inhibitory effects of the compounds of the disclosure were measured in biochemical assays that measure the enzymatic phosphorylation activity of CDK enzyme in complex of Cyclin proteins phosphorylates 7.5 micromolar fluorescently labelled peptide substrate, 5-FAM-QSPKKG-CONH2, (FL-Peptide 18, Perkin Elmer, 760362) in the presence of adenosine-5′-triphosphate (ATP) and varying concentrations of the test compound in 100 mM 2-[4-(2-hydroxyethyl)piperazin-1-yl] ethanesulfonic acid (HEPES), pH 7.5, 10 mM MgCl2, 0.015% Brij-35, 1 mM dithiothreitol (DTT), 1.0% dimethylsulfoxide (DMSO). Assays were performed at 1.0 mM ATP or at ATP Km of the CDK enzymes in complex with Cyclin proteins. Reactions proceeded until between 10% to 20% total peptides were phosphorylated at room temperature (25° C.) and were terminated with 35 mM 2,2′,2″,2′″-(ethane-1,2-diyldinitrilo)tetraacetic acid (EDTA). Product was detected using the Caliper mobility shift detection method where the phosphorylated peptide (product) and substrate were electrophoretically separated and measured. Percent activity was plotted against log concentration of compound and points to generate an apparent IC50. The following CDK enzymes in complex with different cyclin proteins were used in these assays: • CDK1/Cyclin B1, GST-tag (BPS, 40454), 1.5 nM used in the assay • CDK2/Cyclin E (Eurofins, 14-475), 1.25 nM used in the assays
(§2) For inhibitory activity against CDK2/Cyclin E mutant, the following designations are used: ≤10 nM=A; >10-20 nM=B; >20-30 nM=C; >30-100 nM=D and >100=E. For inhibition CDK1/Cyclin B1, GST-tag: ≥500 nM=A; <100-500 nM=B; <100 nM=C.

CDK1/Cyclin B1, GST-tag = molecular target: T1, CDK1/Cyclin B1, GST-tag (Homo sapiens, UniProt P06493); test: CDK1/Cyclin B1 biochemical phosphorylation assay (Caliper mobility shift); details: apparent IC50; 1.0 mM ATP or ATP Km; 1.5 nM enzyme; 25° C.
T1 construct: GST
T1 sequence (P06493 whole entry): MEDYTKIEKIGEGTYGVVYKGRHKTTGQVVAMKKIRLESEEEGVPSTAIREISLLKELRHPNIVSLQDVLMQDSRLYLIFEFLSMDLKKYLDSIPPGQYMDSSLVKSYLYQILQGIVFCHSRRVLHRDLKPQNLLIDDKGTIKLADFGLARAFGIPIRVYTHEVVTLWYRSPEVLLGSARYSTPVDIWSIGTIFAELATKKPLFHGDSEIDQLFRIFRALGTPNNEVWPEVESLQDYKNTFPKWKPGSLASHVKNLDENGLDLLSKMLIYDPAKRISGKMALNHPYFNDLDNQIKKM
T1 sequence (P14635 whole entry partner): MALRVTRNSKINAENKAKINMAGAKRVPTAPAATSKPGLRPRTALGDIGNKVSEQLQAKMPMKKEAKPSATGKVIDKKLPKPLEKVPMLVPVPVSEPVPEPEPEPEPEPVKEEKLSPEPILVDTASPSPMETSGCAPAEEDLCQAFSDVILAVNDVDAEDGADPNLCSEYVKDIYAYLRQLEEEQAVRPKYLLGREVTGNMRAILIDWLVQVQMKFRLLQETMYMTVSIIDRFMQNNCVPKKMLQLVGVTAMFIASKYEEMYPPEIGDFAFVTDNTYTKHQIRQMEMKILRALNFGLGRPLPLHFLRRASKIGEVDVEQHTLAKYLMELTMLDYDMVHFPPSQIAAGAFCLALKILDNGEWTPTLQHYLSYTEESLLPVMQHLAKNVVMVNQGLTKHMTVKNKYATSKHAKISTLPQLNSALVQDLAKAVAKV
Experimental: as §1, §2

SMILES | IC50 (CDK2/Cyclin E) | IC50 (CDK1/Cyclin B1, GST-tag)
Cc1ccncc1Cn1ncc2ncc(Nc3cc(OC(F)F)[nH]n3)nc21 [Example 96, N-(5-(difluoromethoxy)-1H-pyrazol-3-yl)-1-((4-methylpyridin-3-yl)methyl)-1H-pyrazolo[3,4-b]pyrazin-6-amine] | 0.03 to 0.1 µM | ≥ 0.5 µM
C[C@@H](c1cnccc1F)n1ncc2ncc(Nc3cc(OC(F)F)[nH]n3)nc21 (single isomer, unassigned) [Example 174, (R)-N-(5-(difluoromethoxy)-1H-pyrazol-3-yl)-1-(1-(4-fluoropyridin-3-yl)ethyl)-1H-pyrazolo[3,4-b]pyrazin-6-amine or (S)-N-(5-(difluoromethoxy)-1H-pyrazol-3-yl)-1-(1-(4-fluoropyridin-3-yl)ethyl)-1H-pyrazolo[3,4-b]pyrazin-6-amine] | > 0.1 µM | ≥ 0.5 µM
COc1cc(Nc2cnc3cnn([C@@H](C)C4CCOCC4)c3n2)n[nH]1 [Example 22, (S)—N-(5-methoxy-1H-pyrazol-3-yl)-1-(1-(tetrahydro-2H-pyran-4-yl)ethyl)-1H-pyrazolo[3,4-b]pyrazin-6-amine] | ≤ 0.01 µM | 0.1 to 0.5 µM
FC(F)Oc1cc(Nc2cnc3cnn(C[C@@]4(F)CCOC4)c3n2)n[nH]1 (single isomer, unassigned) [Example 168, (R)-N-(5-(difluoromethoxy)-1H-pyrazol-3-yl)-1-((3-fluorotetrahydrofuran-3-yl)methyl)-1H-pyrazolo[3,4-b]pyrazin-6-amine or (S)-N-(5-(difluoromethoxy)-1H-pyrazol-3-yl)-1-((3-fluorotetrahydrofuran-3-yl)methyl)-1H-pyrazolo[3,4-b]pyrazin-6-amine] | 0.03 to 0.1 µM | ≥ 0.5 µM
COc1cc(Nc2cnc3cnn(CC4C5COCC54)c3n2)n[nH]1 (stereo not drawn) [Example 138, 1-((3-oxabicyclo[3.1.0]hexan-6-yl)methyl)-N-(5-methoxy-1H-pyrazol-3-yl)-1H-pyrazolo[3,4-b]pyrazin-6-amine] | 0.02 to 0.03 µM | ≥ 0.5 µM
O[C@H]1CC[C@@H](n2ncc3ncc(Nc4cc(OC(F)F)[nH]n4)nc32)C1 (single isomer, unassigned) [Example 208] | ≤ 0.01 µM | ≥ 0.5 µM
FC[C@H](c1cccnc1)n1ncc2ncc(Nc3cc(OC(F)F)[nH]n3)nc21 (single isomer, unassigned) [Example 18, (S)—N-(5-(difluoromethoxy)-1H-pyrazol-3-yl)-1-(2-fluoro-1-(pyridin-3-yl)ethyl)-1H-pyrazolo[3,4-b]pyrazin-6-amine or (R)—N-(5-(difluoromethoxy)-1H-pyrazol-3-yl)-1-(2-fluoro-1-(pyridin-3-yl)ethyl)-1H-pyrazolo[3,4-b]pyrazin-6-amine] | 0.02 to 0.03 µM | ≥ 0.5 µM
O=C1C[C@H](Cn2ncc3ncc(Nc4cc(OC(F)F)[nH]n4)nc32)CN1 (single isomer, unassigned) [Example 20, (S)-4-((6-((5-(difluoromethoxy)-1H-pyrazol-3-yl)amino)-1H-pyrazolo[3,4-b]pyrazin-1-yl)methyl)pyrrolidin-2-one or (R)-4-((6-((5-(difluoromethoxy)-1H-pyrazol-3-yl)amino)-1H-pyrazolo[3,4-b]pyrazin-1-yl)methyl)pyrrolidin-2-one] | ≤ 0.01 µM | ≥ 0.5 µM
C[C@H](CO)Cn1ncc2ncc(Nc3cc(OC(F)F)[nH]n3)nc21 [Example 199, (S)-3-(6-((5-(difluoromethoxy)-1H-pyrazol-3-yl)amino)-1H-pyrazolo[3,4-b]pyrazin-1-yl)-2-methylpropan-1-ol] | 0.03 to 0.1 µM | ≥ 0.5 µM
C[C@H](c1cc(F)ccn1)n1ncc2ncc(Nc3cc(OC(F)F)[nH]n3)nc21 (single isomer, unassigned) [Example 14, (R)—N-(5-(difluoromethoxy)-1H-pyrazol-3-yl)-1-(1-(4-fluoropyridin-2-yl)ethyl)-1H-pyrazolo[3,4-b]pyrazin-6-amine or (S)—N-(5-(difluoromethoxy)-1H-pyrazol-3-yl)-1-(1-(4-fluoropyridin-2-yl)ethyl)-1H-pyrazolo[3,4-b]pyrazin-6-amine] | 0.01 to 0.02 µM | ≥ 0.5 µM
C[C@@H](c1ccc(F)cc1)n1ncc2ncc(Nc3cc(OC(F)F)[nH]n3)nc21 [Example 47, (S)-N-(5-(difluoromethoxy)-1H-pyrazol-3-yl)-1-(1-(4-fluorophenyl)ethyl)-1H-pyrazolo[3,4-b]pyrazin-6-amine] | ≤ 0.01 µM | ≥ 0.5 µM
FC(F)Oc1cc(Nc2cnc3cnn([C@H](c4ccccn4)C(F)F)c3n2)n[nH]1 (single isomer, unassigned) [Example 150, (S)-1-(2,2-difluoro-1-(pyridin-2-yl)ethyl)-N-(5-(difluoromethoxy)-1H-pyrazol-3-yl)-1H-pyrazolo[3,4-b]pyrazin-6-amine or (R)-1-(2,2-difluoro-1-(pyridin-2-yl)ethyl)-N-(5-(difluoromethoxy)-1H-pyrazol-3-yl)-1H-pyrazolo[3,4-b]pyrazin-6-amine] | 0.01 to 0.02 µM | ≥ 0.5 µM
COc1cc(Nc2cnc3cnn(C[C@H]4C[C@@H](C)O[C@@H](C)C4)c3n2)n[nH]1 [Example 66, 1-(((2R,4r,6S)-2,6-dimethyltetrahydro-2H-pyran-4-yl)methyl)-N-(5-methoxy-1H-pyrazol-3-yl)-1H-pyrazolo[3,4-b]pyrazin-6-amine] | ≤ 0.01 µM | < 0.1 µM
Fc1cncc(Cn2ncc3ncc(Nc4cc(OC(F)F)[nH]n4)nc32)c1 [Example 42, N-(5-(difluoromethoxy)-1H-pyrazol-3-yl)-1-((5-fluoropyridin-3-yl)methyl)-1H-pyrazolo[3,4-b]pyrazin-6-amine] | 0.02 to 0.03 µM | ≥ 0.5 µM
[2H]C([2H])(C)n1ncc2ncc(Nc3cc(OC(F)F)[nH]n3)nc21 [Example 225, N-(5-(difluoromethoxy)-1H-pyrazol-3-yl)-1-(ethyl-1,1-d2)-1H-pyrazolo[3,4-b]pyrazin-6-amine] | 0.03 to 0.1 µM | ≥ 0.5 µM
N#CCC1(Cn2ncc3ncc(Nc4cc(OC(F)F)[nH]n4)nc32)CC1 [Example 132, 2-(1-((6-((5-(difluoromethoxy)-1H-pyrazol-3-yl)amino)-1H-pyrazolo[3,4-b]pyrazin-1-yl)methyl)cyclopropyl)acetonitrile] | 0.03 to 0.1 µM | ≥ 0.5 µM
FC(F)Oc1cc(Nc2cnc3cnn(C[C@@H]4CC45CC5)c3n2)n[nH]1 (racemic) [Example 109, (R)-N-(5-(difluoromethoxy)-1H-pyrazol-3-yl)-1-(spiro[2.2]pentan-1-ylmethyl)-1H-pyrazolo[3,4-b]pyrazin-6-amine and (S)-N-(5-(difluoromethoxy)-1H-pyrazol-3-yl)-1-(spiro[2.2]pentan-1-ylmethyl)-1H-pyrazolo[3,4-b]pyrazin-6-amine] | ≤ 0.01 µM | 0.1 to 0.5 µM
O[C@@H]1C[C@H]1Cn1ncc2ncc(Nc3cc(OC(F)F)[nH]n3)nc21 (single isomer, unassigned) [Example 179, (1R,2S)-2-((6-((5-(difluoromethoxy)-1H-pyrazol-3-yl)amino)-1H-pyrazolo[3,4-b]pyrazin-1-yl)methyl)cyclopropan-1-ol or (1S,2R)-2-((6-((5-(difluoromethoxy)-1H-pyrazol-3-yl)amino)-1H-pyrazolo[3,4-b]pyrazin-1-yl)methyl)cyclopropan-1-ol] | 0.03 to 0.1 µM | ≥ 0.5 µM
C[C@]1(Cn2ncc3ncc(Nc4cc(OC(F)F)[nH]n4)nc32)CCOC1 (single isomer, unassigned) [Example 165, (R)-N-(5-(difluoromethoxy)-1H-pyrazol-3-yl)-1-((3-methyltetrahydrofuran-3-yl)methyl)-1H-pyrazolo[3,4-b]pyrazin-6-amine or (S)-N-(5-(difluoromethoxy)-1H-pyrazol-3-yl)-1-((3-methyltetrahydrofuran-3-yl)methyl)-1H-pyrazolo[3,4-b]pyrazin-6-amine] | 0.03 to 0.1 µM | ≥ 0.5 µM
C[C@@H](c1cncc(F)c1)n1ncc2ncc(Nc3cc(OC(F)F)[nH]n3)nc21 (single isomer, unassigned) [Example 154, (R)-N-(5-(difluoromethoxy)-1H-pyrazol-3-yl)-1-(1-(5-fluoropyridin-3-yl)ethyl)-1H-pyrazolo[3,4-b]pyrazin-6-amine or (S)-N-(5-(difluoromethoxy)-1H-pyrazol-3-yl)-1-(1-(5-fluoropyridin-3-yl)ethyl)-1H-pyrazolo[3,4-b]pyrazin-6-amine] | 0.02 to 0.03 µM | ≥ 0.5 µM
N#C[C@H]1C[C@H](Cn2ncc3ncc(Nc4cc(OC(F)F)[nH]n4)nc32)C1 (single isomer, unassigned) [Example 191, (1s,3s)-3-((6-((5-(difluoromethoxy)-1H-pyrazol-3-yl)amino)-1H-pyrazolo[3,4-b]pyrazin-1-yl)methyl)cyclobutane-1-carbonitrile or (1r,3r)-3-((6-((5-(difluoromethoxy)-1H-pyrazol-3-yl)amino)-1H-pyrazolo[3,4-b]pyrazin-1-yl)methyl)cyclobutane-1-carbonitrile] | ≤ 0.01 µM | 0.1 to 0.5 µM
